From patent US20090312335A1 (priority 2005, published 2009)

test system: HIV replication; assay: Inhibition of acute HIV infection with HeLa P4-2 cells, single cycle infectivity ("vertical") assay; assay type: cell-based; details: Human immunodeficiency virus 1, HeLaP4-2
Description: The inhibitory activity of the compounds of the present invention may be measured by assays known in the art. […] Preferred compounds have IC50 values of ≦1 micromolar in this integrase assay. […] 1992, 66, 2232 for measuring the inhibition of acute HIV infection with HeLa P4-2 cells in a single cycle infectivity assay.
An assay for measuring the inhibition of acute HIV infection with HeLa P4-2 cells in a single cycle infectivity assay (alternatively referred to as the “vertical” assay) was conducted in accordance with Joyce, J. G., et al., J. Biol. Chem., 2002, 277, 45811, Hazuda, D. J. et al., Science, 2000, 287, 646, and Kimpton, J. et al, J. Virol. 1992, 66, 2232.

SMILES | IC50 [µM]
CN1CCn2cc(-c3nnc(Cc4ccc(F)cc4)s3)c(O)c2C1=O [Example 1, 7-[5-(4-Fluorobenzyl)-1,3,4-thiadiazol-2-yl]-8-hydroxy-2-methyl-3,4-dihydropyrrolo[1,2-a]pyrazin-1(2H)-one] | < 35
CN1CCn2cc(-c3nnc(Cc4ccc(F)cc4)o3)c(O)c2C1=O [Example 2, 7-[5-(4-Fluorobenzyl)-1,3,4-oxadiazol-2-yl]-8-hydroxy-2-methyl-3,4-dihydropyrrolo[1,2-a]pyrazin-1(2H)-one] | < 35
CN1CCn2cc(-c3nnc(Cc4ccc(F)cc4)[nH]3)c(O)c2C1=O [Example 3] | < 35
CN1C[C@H](c2ccccc2)n2nc(-c3nnc(Cc4ccc(F)cc4)s3)c(O)c2C1=O [Example 4, (7S)-2-[5-(4-Fluorobenzyl)-1,3,4-thiadiazol-2-yl]-3-hydroxy-5-methyl-7-phenyl-6,7-dihydropyrazolo[1,5a]pyrazin-4(5H)-one] | < 35
CN1C[C@H](c2ccccc2)n2nc(-c3nnc(Cc4ccc(F)cc4)o3)c(O)c2C1=O [Example 5, (7S)-2-[5-(4-Fluorobenzyl)-1,3,4-oxadiazol-2-yl]-3-hydroxy-5-methyl-7-phenyl-6,7-dihydropyrazolo[1,5a]pyrazin-4(5H)-one] | < 35
